Reference: PMC12497685, “Anticoronavirus Isoquinoline Alkaloids: Unraveling the Secrets of Their Structure–Activity Relationship” (Influenza and Other Respiratory Viruses, 2025)
Where “and” joins values, the source holds several entries; their conditions need not be identical. Identical values can stand only once. Like-named read-outs stand apart in the source and are kept apart here.

How the values were obtained:
Huh7 cells = details: n = 1
[1] = test system: hACE‐2‐overexpressed HEK293T (ACE2‐293T cells)
HCoV‐229E = assay: microbe, parasite or virus in culture; assay type: cell-based; details: for Protective effects HCoV-229E % / inhibition at 10 µM: n = 1; for inhibition at 10 µM: Human coronavirus 229E, Huh-7, read-out: Protective effects HCoV-229E %
in vitro = details: human
[2] = at 10 μM, compared with vehicle control
[3] = at 10 μM, compared with vehicle control, Huh7 cells
[4] = tested at 1 μM due to low solubility in DMSO

Row | Compound | Cytotoxicity to the host Huh7 cells % (Huh7 cells; [2]) | Protective effects HCoV-229E % (HCoV‐229E; [3]) | further results
1 | (±)‐Haemanthidine [Compound 1] | 20% and ~ 20% | 80% | cytotoxicity towards hACE2‐293 T cells (in words) [1]: toxic; Cell viability (%) ([1]; ACE2-293T, 10 μM, 24 h, WST-1): 51.97 ± 7.07%; EC50 (HCoV‐229E): 4.11 ± 0.41 µM
2 | COc1cc2c3cc1Oc1c(OC)c(OC)cc4c1[C@@H](Cc1ccc(O)c(c1)Oc1ccc(cc1)C[C@@H]3N(C)CC2)N(C)CC4 [Compound 17, (+)‐berbamine] | 25% and ~ 20% | – | cytotoxicity towards hACE2‐293 T cells (in words) [1]: nontoxic; viability at 10 µM (in vitro): 103 ± 2.42%; inhibition at 10 µM (HCoV‐229E; [3]): 70%
3 | COc1ccc(CC2c3cc4c(cc3CCN2C)OCO4)c(C=O)c1OC (stereo not drawn) [Compound 30, (+)‐canadaline] | — (Non-toxic (insignificant cytotoxic effects, below 20%)) | — (Not active (insignificant protective effects below 20%)) | –
4 | COc1ccc(Cc2nccc3cc(OC)c(OC)cc23)cc1OC [Compound 53, papaverine] | 20% | – | inhibition at 10 µM (HCoV‐229E; [3]): < 20%
5 | CN1Cc2c(ccc3c2OCO3)[C@@H]2[C@H]1c1cc3c(cc1C[C@@H]2O)OCO3 [Compound 50, chelidonine] | 35% and 35%–40% | – | inhibition at 10 µM (HCoV‐229E; [3]): < 20%
6 | COc1cc2c(cc1OC)[C@@H](O)O[C@@H]1CC=C3CCN(C)[C@H]3[C@H]21 [Compound 7, lycorenine] | 20% | — (Not active (insignificant protective effects below 20%)) | –
7 | CO[C@@H]1C=C[C@@]23c4cc5c(cc4CO[C@]2(O)CN(C)[C@H]3C1)OCO5 [Compound 5, (+)‐tazettine] | — (Non-toxic (insignificant cytotoxic effects, below 20%)) | — (Not active (insignificant protective effects below 20%)) | –
8 | COc1cc2c(cc1O)[C@@H]1[C@H](O)[C@@H](OC)C=C3CCN(C2)[C@H]31 [Compound 4, 9‐O‐demethylgalanthine] | — (Non-toxic (insignificant cytotoxic effects, below 20%)) | — (Not active (insignificant protective effects below 20%)) | –
9 | COc1ccc2c(c1O)-c1c3c(cc4c1[C@H](C2)N(C)CC4)OCO3 [Compound 28, (+)‐bulbocapnine] | — (Non-toxic (insignificant cytotoxic effects, below 20%)) | — (Not active (insignificant protective effects below 20%)) | –
10 | COc1ccc2c(c1O)-c1c(OC)c(OC)cc3c1[C@H](C2)NCC3 [Compound 57, norisocoridine] | — (Non-toxic (insignificant cytotoxic effects, below 20%)) | — (Not active (insignificant protective effects below 20%)) | –
11 | (+)‐aromoline [Compound 16] | — (Non-toxic (insignificant cytotoxic effects, below 20%)) | 85% | cytotoxicity towards hACE2‐293 T cells (in words) [1]: nontoxic; Cell viability (%) ([1]; 10 µM): 103.64 ± 3.23%; EC50 (HCoV‐229E): 4.33 ± 0.9 µM
12 | (−)‐corypalmine [Compound 25] | — (Non-toxic (insignificant cytotoxic effects, below 20%)) | — (Not active (insignificant protective effects below 20%)) | –
13 | CO[C@@H]1C=C[C@@]23c4cc5c(cc4CN(C[C@@H]2O)[C@H]3C1)OCO5 [Compound 3, (+)‐haemanthamine] | 50% | – | inhibition at 10 µM (HCoV‐229E; [3]): 50%
14 | COc1cc2c(cc1O)C1(Cc3ccc4c(c3C1O)OCO4)N(C)CC2 (stereo not drawn) [Compound 40, (−)‐fumaritine] | – | – | Cytotoxicity to the host Huh7 cells % (Huh7 cells; [4]): — (Non-toxic (insignificant cytotoxic effects, below 20%)); Protective effects HCoV-229E % (HCoV‐229E; [4]): — (Not active (insignificant protective effects below 20%))
15 | COc1cc2c(cc1OC)-c1c(OC)c(OC)cc3c1[C@H](C2)N(C)CC3 [Compound 47, glaucine] | — (Non-toxic (insignificant cytotoxic effects, below 20%)) | – | inhibition at 10 µM (HCoV‐229E; [3]): < 20%
16 | COc1cc2c(cc1OC)[C@@]1(Cc3ccc4c(c3[C@@H]1O)OCO4)N(C)CC2 [Compound 38, (−)‐fumaricine] | — (Non-toxic (insignificant cytotoxic effects, below 20%)) | — (Not active (insignificant protective effects below 20%)) | –
17 | COc1cc2c(cc1OC)C1Cc3cc(OC)c(OC)cc3[C@H](C2)N1C [Compound 23, argemonine] | — (Non-toxic (insignificant cytotoxic effects, below 20%)) | — (Not active (insignificant protective effects below 20%)) | –
18 | COc1cc2c(cc1OC)C1Cc3ccc(OC)c(O)c3C(C2)N1C (stereo not drawn) [Compound 24, (−)‐platycerine] | — (Non-toxic (insignificant cytotoxic effects, below 20%)) | — (Not active (insignificant protective effects below 20%)) | –
19 | (−)‐fumarophycine hydrochloride [Compound 37] | — (Non-toxic (insignificant cytotoxic effects, below 20%)) | — (Not active (insignificant protective effects below 20%)) | –
20 | COc1ccc2c(c1OC)[C@@H]1Cc3cc4c(cc3[C@H](C2)N1C)OCO4 [Compound 36, O‐methylneocarychine] | — (Non-toxic (insignificant cytotoxic effects, below 20%)) | — (Not active (insignificant protective effects below 20%)) | –
21 | COc1cc2c(cc1OC)C(=O)Cc1ccc3c(c1CN(C)CC2)OCO3 [Compound 45, cryptopine] | — (Non-toxic (insignificant cytotoxic effects, below 20%)) | — (Not active (insignificant protective effects below 20%)) | –
22 | O[C@H]1C=C[C@@]23c4cc5c(cc4CN(C[C@@H]2O)[C@H]3C1)OCO5 [Compound 2, (+)‐hamayne] | — (Non-toxic (insignificant cytotoxic effects, below 20%)) | — (Not active (insignificant protective effects below 20%)) | –
23 | CN1CCc2cc3c(cc2[C@H]1[C@@H]1OC(=O)c2c1ccc1c2OCO1)OCO3 [Compound 46, (+)‐bicuculline] | — (Non-toxic (insignificant cytotoxic effects, below 20%)) | — (Not active (insignificant protective effects below 20%)) | –
24 | COc1cc2c3cc1Oc1c(O)c(OC)cc4c1[C@@H](Cc1ccc(O)c(c1)Oc1ccc(cc1)C[C@@H]3N(C)CC2)N(C)CC4 [Compound 19, (+)‐obamegine] | — (Non-toxic (insignificant cytotoxic effects, below 20%)) | – | cytotoxicity towards hACE2‐293 T cells (in words) [1]: nontoxic; viability at 10 µM (in vitro): 97.5 ± 7.15%; inhibition at 10 µM (HCoV‐229E; [3]): 80%
25 | COC1=CC=C2[C@H]3Cc4ccc(OC)c5c4[C@@]2(CCN3C)[C@H]1O5 [Compound 54, thebaine] | — (Non-toxic (insignificant cytotoxic effects, below 20%)) | – | inhibition at 10 µM (HCoV‐229E; [3]): < 20%
